Common to all, as to type: cell-based
In data set [1] the test system is HepG2.2.15 cells. Put plainly: Cytotoxicity determination in HepG2.2.15 cells (CCK-8). Conditions: 6 days treatment, CCK-8, highest concentration 100 uM. The method in brief:
(§1)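 HepG2.2.15 cells seeded at 5,000 cells/well in 2% FBS medium and exposed to compounds for 6 days (medium refreshed once), 8 three-fold dilutions from 100 uM. Viability read by CCK-8 after 2.5 h at 37 °C, absorbance 450 nm with 630 nm reference; CC50 calculated.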

Data set [2] relates to HBV. Put plainly: Anti-viral assay in HepG2.2.15 cells: HBV inhibitory activity (HBV DNA in culture medium by q-PCR). Conditions: HepG2.2.15 cells, 6 days treatment, HBV DNA in culture medium by q-PCR, highest concentration 10 uM, read-out: EC50. The method in brief:
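HepG2.2.15 cells seeded at 40,000/well in 2% FBS medium, dosed next day for 6 days (medium refreshed once midway); 8-point 3-fold dilutions from 10 uM top. HBV DNA in culture medium extracted and quantified by q-PCR; EC50 calculated from dose-response.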

A short description of data set [3]: Cytotoxicity determination in HepG2.2.15 cells (CCK-8). Conditions: human, 6 days treatment, CCK-8, highest concentration 100 uM. The method in brief: as §1
[4] abbreviates: Hepatitis B virus, HepG2.2.15, 144 h.

Molecules are shown by their SMILES. Like-named read-outs stand apart in the source and are kept apart here.

The text below walks through data of US11053235B2, “Substituted 1,4-dihydropyrimidines for the treatment of HBV infection or HBV-induced diseases” (Janssen Sciences Ireland Unlimited Company, priority 2018, dated 2021).

`CCOC(=O)C1=C(C2CC=C(c3nc(C(=O)O)co3)CC2)NC(c2nccs2)=NC1c1ccc(F)c(F)c1Cl` (single isomer, unassigned) [Compound I-13-D, 2-(4-(6-(2-chloro-3,4-difluorophenyl)-5-(ethoxycarbonyl)-2-(thiazol-2-yl)-3,6-dihydropyrimidin-4-yl)cyclohex-1-en-1-yl)oxazole-4-carboxylic Acid] displayed a CC50 in data set [1] of 6.09 µM. Also, in data set [2], the EC50 was 0.0032 µM.
Turning to `CCOC(=O)C1=C(C2CCN(c3ncc(C(=O)O)cn3)CC2)NC(c2nccs2)=NC1c1ccc(F)c(F)c1Cl` (single isomer, unassigned) [II-74-B, 2-(4-(6-(2-Chloro-3,4-difluorophenyl)-5-(ethoxycarbonyl)-2-(thiazol-2-yl)-3,6-dihydropyrimidin-4-yl)piperidin-1-yl)pyrimidine-5-carboxylic Acid], the CC50 at 6 days in data set [3] amounted to 9.31 µM. For the same compound, in data set [2] (setting [4]), the EC50 amounted to 0.0066 µM.
As for `COC(=O)C1=C(C2CCN(c3cc(C(=O)O)c(N(C)C)cn3)CC2)NC(c2nccs2)=NC1c1ccc(F)c(F)c1Cl` (single isomer, unassigned) [II-93-B, 2-(4-(6-(2-chloro-3,4-difluorophenyl)-5-(methoxycarbonyl)-2-(thiazol-2-yl)-3,6-dihydropyrimidin-4-yl)piperidin-1-yl)-5-(dimethylamino)isonicotinic Acid], the midpoint of cytotoxicity in data set [3], the CC50 at 6 days, lay at 28.9 µM. Further, the EC50 in data set [2] (setting [4]) stood at 0.0066 µM.
The compound `COC(=O)C1=C([C@H]2CC[C@H](c3nc(CC(=O)O)co3)CC2)NC(c2nccs2)=NC1c1cccc(F)c1Cl` (single isomer, unassigned) [Compound I-20-B, (trans)-2-(2-(4-(6-(2-Chloro-3-fluorophenyl)-5-(methoxycarbonyl)-2-(thiazol-2-yl)-3,6-dihydropyrimidin-4-yl)cyclohexyl)oxazol-4-yl)acetic Acid] had a CC50 at 6 days in data set [3] of 7.21 µM. Further, the EC50 in data set [2] (setting [4]) is 0.03 µM.

By CC50 is commonly meant the concentration that lowers cell viability or growth by half. High values mean better tolerance by the cells, low ones harm at low concentration. A word on the EC50: it is the concentration giving half of the maximal effect.
